Assay results: paper PMC5740067 (Scientific Reports, 2017)
Entries after “also recorded” stand apart in the source; their conditions may differ. Read-outs that look alike come from different tables or passages of the source.

Legend:
[1] = molecular target: T1, OccJ WT (Agrobacterium tumefaciens, UniProt P0A4F8); test: biochemical; format: binding
T1 construct: The mature PBP OccJ (256 aa without the signal peptide) expression plasmid was obtained by cloning the occJ gene lacking the first twenty residues; hexahistidine (C); made in house; host or cells: E. coli BL21
T1 sequence (P0A4F8 21-276): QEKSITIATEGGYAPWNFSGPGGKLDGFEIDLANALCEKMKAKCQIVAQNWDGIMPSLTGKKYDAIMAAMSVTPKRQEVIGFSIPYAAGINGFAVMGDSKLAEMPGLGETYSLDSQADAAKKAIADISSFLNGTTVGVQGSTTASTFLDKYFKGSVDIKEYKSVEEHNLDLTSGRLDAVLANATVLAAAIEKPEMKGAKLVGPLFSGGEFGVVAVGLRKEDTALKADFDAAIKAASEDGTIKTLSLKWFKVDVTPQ
Procedure: (§1) Binding of ligands to OccJ, NocT, LAO and protein mutants was monitored by autofluorescence by exciting the protein at a wavelength of 295 nm and monitoring the quenching of fluorescence emission of tryptophans at 335 nm. All experiments were performed at 20 °C in 96 wells plates (1/2 Area Plate-96F, Perkin Elmer) using Tecan Infinite M1000 reader (Tecan), in 50 mM Tris-HCl pH 8.0, 150 mM NaCl buffer with a fixed amount of proteins (1 µM) and increasing concentrations of ligand. […] The data were analysed using Origin® 7 software and fitted to the equation f = ΔFluorescencemax * abs(x)/(K D + abs(x)).

[2] = molecular target: T2, NocT WT (Agrobacterium fabrum, UniProt P35120); settings: fluorescence titration; octopine and nopaline; ref [6],[14]; read-out: K D (F); cited from earlier work
T2 construct: Cloning of mature OccJ, NocT-G97S, OccJ-S91G, OccJ-N202D, LAO and LAO-Q122A; made in house
T2 sequence (P35120 26-283): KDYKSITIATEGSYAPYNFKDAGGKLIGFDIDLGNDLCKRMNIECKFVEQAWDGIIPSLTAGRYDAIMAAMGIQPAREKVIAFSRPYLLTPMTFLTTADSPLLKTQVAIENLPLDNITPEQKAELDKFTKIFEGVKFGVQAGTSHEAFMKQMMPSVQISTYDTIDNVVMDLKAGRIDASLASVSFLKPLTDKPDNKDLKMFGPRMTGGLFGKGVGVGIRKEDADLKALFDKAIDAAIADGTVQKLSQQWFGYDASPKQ

[3] = molecular target: T1, OccJ WT; test: OccJ WT ligand binding, isothermal titration microcalorimetry; settings: ITC, 20 °C
Procedure: (§2) Isothermal titration microcalorimetry experiments were performed with an ITC200 isothermal titration calorimeter from MicroCal (GE Healthcare). The experiments were carried out at 20 °C. Protein concentration in the microcalorimeter cell (0.2 mL) varied from 20 to 150 µM. Nineteen injections of 2 µL of ligand solution (amino acids, opines and octopine derivatives) at concentration ranging from 240 µM to 1.5 mM were performed at intervals of 180 s while stirring at 500 rpm. The experimental data were fitted to theoretical titration curves with software supplied by MicroCal (ORIGIN®). This software uses the relationship between the heat generated by each injection and ΔH (enthalpy change in kcal/mol), Ka (the association binding constant in M^−1), n (the number of binding sites), total protein concentration and free and total ligand concentrations.

[4] = molecular target: T3, LAO Q122A (Salmonella typhimurium, UniProt P02911, Q144A); test: LAO Q122A ligand binding, ITC; parameters: species or system Salmonella enterica; settings: ITC, 20 °C
T3 construct: The mature LAO expression plasmid, LAO-Q122A, OccJ-S91G and OccJ-N202D were chemically synthesized; pET-28a); host or cells: E. coli BL21
T3 sequence (P02911 23-260 Q144A): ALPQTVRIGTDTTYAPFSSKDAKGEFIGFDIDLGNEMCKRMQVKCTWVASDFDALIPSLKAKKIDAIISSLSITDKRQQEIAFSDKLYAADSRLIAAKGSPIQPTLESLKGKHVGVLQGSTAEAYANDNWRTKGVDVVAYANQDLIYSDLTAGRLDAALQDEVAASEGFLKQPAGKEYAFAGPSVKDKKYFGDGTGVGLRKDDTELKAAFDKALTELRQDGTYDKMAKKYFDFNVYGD
Procedure: as §2

[5] = molecular target: T4, OccJ N202D (Agrobacterium tumefaciens, UniProt P0A4F8, N202D); format: binding; settings: intrinsic protein fluorescence titration; 20 °C; pH 8.0; read-out: K D (F)
T4 construct: The mature LAO expression plasmid, LAO-Q122A, OccJ-S91G and OccJ-N202D were chemically synthesized; pET-28a); host or cells: E. coli BL21
T4 sequence (P0A4F8 21-276 N202D): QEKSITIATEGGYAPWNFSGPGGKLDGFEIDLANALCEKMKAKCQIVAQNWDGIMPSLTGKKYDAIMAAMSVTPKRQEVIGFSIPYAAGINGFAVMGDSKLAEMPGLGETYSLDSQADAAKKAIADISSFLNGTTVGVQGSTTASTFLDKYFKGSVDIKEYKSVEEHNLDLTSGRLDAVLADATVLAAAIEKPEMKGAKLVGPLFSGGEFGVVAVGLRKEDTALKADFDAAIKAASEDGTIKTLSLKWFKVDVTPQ

[6] = molecular target: T5, OccJ S91G (Agrobacterium tumefaciens, UniProt P0A4F8, S91G); test: OccJ S91G ligand binding, fluorescence titration; settings: intrinsic protein fluorescence titration
T5 construct: The mature LAO expression plasmid, LAO-Q122A, OccJ-S91G and OccJ-N202D were chemically synthesized; pET-28a); host or cells: E. coli BL21
T5 sequence (P0A4F8 21-276 S91G): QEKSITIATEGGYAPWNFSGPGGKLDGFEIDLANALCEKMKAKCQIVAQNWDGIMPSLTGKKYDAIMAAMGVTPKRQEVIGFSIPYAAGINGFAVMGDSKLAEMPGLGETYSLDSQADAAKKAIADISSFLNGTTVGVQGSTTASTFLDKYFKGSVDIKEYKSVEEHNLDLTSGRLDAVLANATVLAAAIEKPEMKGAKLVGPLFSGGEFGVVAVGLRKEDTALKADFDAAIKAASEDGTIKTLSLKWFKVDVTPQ
Procedure: as §1

[7] = molecular target: T6, NocT G97S (Agrobacterium fabrum, UniProt P35120, G97S); format: binding, Agrobacterium tumefaciens; settings: ITC, 20 °C
T6 construct: Cloning of mature OccJ, NocT-G97S, OccJ-S91G, OccJ-N202D, LAO and LAO-Q122A; made in house; host or cells: E. coli BL21
T6 sequence (P35120 26-283 G97S): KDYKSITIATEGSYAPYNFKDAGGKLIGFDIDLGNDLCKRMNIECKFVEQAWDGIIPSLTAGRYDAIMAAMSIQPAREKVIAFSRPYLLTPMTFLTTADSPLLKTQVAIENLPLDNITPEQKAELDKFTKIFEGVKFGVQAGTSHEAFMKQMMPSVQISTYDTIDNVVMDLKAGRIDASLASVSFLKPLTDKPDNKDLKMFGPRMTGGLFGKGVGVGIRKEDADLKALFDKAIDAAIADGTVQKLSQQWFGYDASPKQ
Procedure: as §2

[8] = molecular target: T4, OccJ N202D; format: binding; settings: ITC, 20 °C
Procedure: as §2

[9] = molecular target: T5, OccJ S91G; format: binding; settings: ITC, 20 °C
Procedure: as §2

[10] = molecular target: T6, NocT G97S; format: binding, Agrobacterium tumefaciens; settings: intrinsic protein fluorescence titration; 20 °C; pH 8.0; read-out: K D (F)
[11] = tested on: NocT G97S; format: binding, Agrobacterium tumefaciens
[12] = molecular target: T2, NocT WT; settings: ITC; octopine; ref [6],[14]; read-out: K D (ITC) (converted); cited from earlier work
[13] = molecular target: T7, LAO WT (Salmonella typhimurium, UniProt P02911); test: biochemical; format: binding, Salmonella enterica; settings: ITC, 20 °C
T7 construct: The mature LAO expression plasmid, LAO-Q122A, OccJ-S91G and OccJ-N202D were chemically synthesized; pET-28a); host or cells: E. coli BL21
T7 sequence (P02911 23-260): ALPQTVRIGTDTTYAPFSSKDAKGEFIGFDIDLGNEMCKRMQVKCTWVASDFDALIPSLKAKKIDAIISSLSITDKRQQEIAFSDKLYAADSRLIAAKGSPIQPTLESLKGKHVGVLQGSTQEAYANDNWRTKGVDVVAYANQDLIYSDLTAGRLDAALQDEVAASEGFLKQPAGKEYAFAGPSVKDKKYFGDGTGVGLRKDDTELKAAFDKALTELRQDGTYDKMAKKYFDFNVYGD
Procedure: as §2

Question: Which Kd ([1]; fluorescence titration, read-out: apparent dissociation constant K D) does the source give for `C[C@@H](N[C@@H](CCCN=C(N)N)C(=O)O)C(=O)O` [octopine] here?
Answer: The Kd was 0.004 ± 0.001 µM.

Question: What about the Kd ([1]; intrinsic protein fluorescence titration, 20 °C, 50 mM Tris-HCl pH 8.0, 150 mM NaCl, 1 µM protein, read-out: K D (F)) of the same compound?
Answer: The Kd was 0.004 ± 0.0001 µM.

Question: What about the Kd [2] of the same compound?
Answer: The Kd was 6.1 ± 0.7 µM.

Question: And the “Enthalpy (ΔH)” value [3]?
Answer: Its value is -4.837 kcal/mol.

Question: And the “Entropic contribution (-TΔS)” value [3]?
Answer: Its value is -5.98 kcal/mol.

Question: What about the “Entropy (ΔS)” value [3] of the same compound?
Answer: The value was 20.4 cal/mol/deg.

Question: And the “Free enthalpy (ΔG)” value [3]?
Answer: Its value is -10.817 kcal/mol.

Question: What about the Kd [3] of the same compound?
Answer: The Kd was 0.009 µM.

Question: And the “Enthalpy (ΔH)” value [4]?
Answer: The value was -3.318 kcal/mol.

Question: And the “Entropic contribution (-TΔS)” value [4]?
Answer: The value was -2.673 kcal/mol.

Question: And the “Entropy (ΔS)” value [4]?
Answer: Its value is 9.12 cal/mol/deg.

Question: And the “Free enthalpy (ΔG)” value [4]?
Answer: The value was -5.991 kcal/mol.

Question: And the Kd ([4]; read-out: K D (ITC))?
Answer: Its Kd is 34 ± 5 µM.

Question: What about the Kd [5] of the same compound?
Answer: The Kd was 0.006 ± 0.001 µM.

Question: And the “fold lower affinity of OccJ-S91G than OccJ” value [6]?
Answer: The value was “over 7,000 fold”.

Question: What about the Kd ([6]; 20 °C, pH 8.0, read-out: K D (F)) of the same compound?
Answer: Its Kd is 29.9 ± 3.8 µM.

Question: And the “Enthalpy (ΔH)” value [7]?
Answer: Its value is 0.687 kcal/mol.

Question: What about the “Entropic contribution (-TΔS)” value [7] of the same compound?
Answer: Its value is -6.42 kcal/mol.

Question: What about the “Entropy (ΔS)” value [7] of the same compound?
Answer: Its value is 21.9 cal/mol/deg.

Question: What about the “Free enthalpy (ΔG)” value [7] of the same compound?
Answer: The value was -5.733 kcal/mol.

Question: What about the Kd [7] of the same compound?
Answer: Its Kd is 52 µM.

Question: What about the “Enthalpy (ΔH)” value [8] of the same compound?
Answer: The value was -4.12 kcal/mol.

Question: And the “Entropic contribution (-TΔS)” value [8]?
Answer: Its value is -6.345 kcal/mol.

Question: What about the “Entropy (ΔS)” value [8] of the same compound?
Answer: The value was 21.5 cal/mol/deg.

Question: What about the “Free enthalpy (ΔG)” value [8] of the same compound?
Answer: Its value is -10.465 kcal/mol.

Question: What about the Kd [8] of the same compound?
Answer: The Kd was 0.016 µM.

Question: And the “Enthalpy (ΔH)” value [9]?
Answer: The value was -0.726 kcal/mol.

Question: And the “Entropic contribution (-TΔS)” value [9]?
Answer: The value was -5.569 kcal/mol.

Question: And the “Entropy (ΔS)” value [9]?
Answer: The value was 19 cal/mol/deg.

Question: What about the “Free enthalpy (ΔG)” value [9] of the same compound?
Answer: The value was -6.295 kcal/mol.

Question: And the Kd [9]?
Answer: Its Kd is 20 µM.

Question: What about the Kd [10] of the same compound?
Answer: Its Kd is 63.8 ± 13.8 µM.

Question: What about the “fold lower affinity of NocT G97S compared with the WT” value [11] of the same compound?
Answer: The value was 10 fold.

Question: And the Kd [12]?
Answer: The Kd was 9.9 µM.

Question: And the “K D (ITC)” value [13]?
Answer: The value was “No interaction; also recorded: cannot bind”.
